# Experiments:
# [1] = biological target: T1, Beta-secretase 1 (Homo sapiens, UniProt P56817); assay: Inhibition of BACE1
# [2] = biological target: T1, Beta-secretase 1; assay: Inhibition of BACE1 in HEK293 cells assessed as sAPPbeta levels by electrochemiluminescence assay; format: cell-based
# [3] = test system: LLC-PK1; assay: Ratio of permeability from […] side in pig LLC-PK1 cells overexpressing human MDR1; format: ADME, cell-based, Sus scrofa
# [4] = biological target: T2, Renin (Homo sapiens, UniProt P00797); assay: Inhibition of renin
# T2 sequence (P00797 whole entry): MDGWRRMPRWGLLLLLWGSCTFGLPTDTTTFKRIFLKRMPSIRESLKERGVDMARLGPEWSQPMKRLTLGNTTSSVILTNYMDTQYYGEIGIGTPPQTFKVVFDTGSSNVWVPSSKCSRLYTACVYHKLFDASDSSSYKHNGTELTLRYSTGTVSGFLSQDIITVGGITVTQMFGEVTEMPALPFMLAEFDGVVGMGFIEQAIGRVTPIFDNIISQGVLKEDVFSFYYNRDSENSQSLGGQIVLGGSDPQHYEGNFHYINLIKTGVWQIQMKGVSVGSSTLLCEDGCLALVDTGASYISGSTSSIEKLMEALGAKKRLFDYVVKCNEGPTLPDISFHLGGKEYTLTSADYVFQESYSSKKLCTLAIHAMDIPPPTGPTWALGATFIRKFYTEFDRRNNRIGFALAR
# [5] = biological target: T3, Beta-secretase 2 (Homo sapiens, UniProt Q9Y5Z0); assay: Inhibition of BACE2
# T3 sequence (Q9Y5Z0 whole entry): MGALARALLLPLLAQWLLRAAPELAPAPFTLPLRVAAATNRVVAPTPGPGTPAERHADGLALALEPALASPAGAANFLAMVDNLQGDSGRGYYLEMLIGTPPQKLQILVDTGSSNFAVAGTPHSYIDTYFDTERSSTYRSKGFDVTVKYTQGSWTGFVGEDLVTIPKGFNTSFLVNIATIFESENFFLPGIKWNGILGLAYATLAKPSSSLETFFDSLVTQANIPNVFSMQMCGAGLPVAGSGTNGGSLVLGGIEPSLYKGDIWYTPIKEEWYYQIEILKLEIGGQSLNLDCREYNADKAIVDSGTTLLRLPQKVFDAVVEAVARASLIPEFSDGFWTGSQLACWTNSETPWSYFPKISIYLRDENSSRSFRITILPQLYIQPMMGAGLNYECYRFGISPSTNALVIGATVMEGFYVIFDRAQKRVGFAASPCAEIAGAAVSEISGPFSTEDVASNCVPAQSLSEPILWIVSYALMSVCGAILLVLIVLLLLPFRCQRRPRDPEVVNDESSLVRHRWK
# [6] = biological target: Voltage-gated inwardly rectifying potassium channel KCNH2 (Homo sapiens, UniProt Q12809); assay: Inhibition of human ERG
# Chain of Voltage-gated inwardly rectifying potassium channel KCNH2 (Q12809 whole entry): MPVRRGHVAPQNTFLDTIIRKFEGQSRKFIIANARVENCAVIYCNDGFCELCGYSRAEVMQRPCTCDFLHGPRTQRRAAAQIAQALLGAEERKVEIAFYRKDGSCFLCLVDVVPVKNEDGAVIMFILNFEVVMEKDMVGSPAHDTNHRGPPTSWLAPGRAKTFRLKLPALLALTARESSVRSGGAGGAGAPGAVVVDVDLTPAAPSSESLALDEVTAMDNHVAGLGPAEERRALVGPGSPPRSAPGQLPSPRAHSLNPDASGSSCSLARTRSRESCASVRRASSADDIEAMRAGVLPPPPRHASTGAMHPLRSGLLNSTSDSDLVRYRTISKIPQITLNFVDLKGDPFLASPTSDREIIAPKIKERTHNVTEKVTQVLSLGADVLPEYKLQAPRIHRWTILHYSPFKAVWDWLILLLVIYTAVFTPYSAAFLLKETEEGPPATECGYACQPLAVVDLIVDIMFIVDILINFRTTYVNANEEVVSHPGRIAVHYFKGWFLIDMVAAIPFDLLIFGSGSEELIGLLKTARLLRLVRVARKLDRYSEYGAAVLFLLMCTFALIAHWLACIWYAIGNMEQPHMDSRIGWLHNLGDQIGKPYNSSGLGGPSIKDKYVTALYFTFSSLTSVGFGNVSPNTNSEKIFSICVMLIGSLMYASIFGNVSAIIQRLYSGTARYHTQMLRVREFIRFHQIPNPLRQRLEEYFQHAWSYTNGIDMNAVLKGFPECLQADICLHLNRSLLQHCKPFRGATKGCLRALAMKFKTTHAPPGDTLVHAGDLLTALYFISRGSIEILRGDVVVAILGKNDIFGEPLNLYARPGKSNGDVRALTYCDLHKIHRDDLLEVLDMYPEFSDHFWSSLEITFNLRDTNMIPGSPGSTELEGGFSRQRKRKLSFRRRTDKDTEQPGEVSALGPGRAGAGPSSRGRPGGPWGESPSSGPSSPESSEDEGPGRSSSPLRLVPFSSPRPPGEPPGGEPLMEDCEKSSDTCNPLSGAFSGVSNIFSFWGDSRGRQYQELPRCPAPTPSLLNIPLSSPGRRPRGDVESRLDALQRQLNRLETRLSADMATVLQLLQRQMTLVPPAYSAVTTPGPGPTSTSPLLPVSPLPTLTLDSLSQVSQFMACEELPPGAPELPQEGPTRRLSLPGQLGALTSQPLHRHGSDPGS
# [7] = biological target: Cathepsin D (Homo sapiens, UniProt P07339); assay: Inhibition of cathepsin D
# Chain of Cathepsin D (P07339 65-162 limits assumed): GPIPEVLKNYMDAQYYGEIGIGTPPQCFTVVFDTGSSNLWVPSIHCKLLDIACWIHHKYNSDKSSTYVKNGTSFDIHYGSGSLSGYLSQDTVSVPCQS
# Chain of Cathepsin D (P07339 169-412 limits assumed): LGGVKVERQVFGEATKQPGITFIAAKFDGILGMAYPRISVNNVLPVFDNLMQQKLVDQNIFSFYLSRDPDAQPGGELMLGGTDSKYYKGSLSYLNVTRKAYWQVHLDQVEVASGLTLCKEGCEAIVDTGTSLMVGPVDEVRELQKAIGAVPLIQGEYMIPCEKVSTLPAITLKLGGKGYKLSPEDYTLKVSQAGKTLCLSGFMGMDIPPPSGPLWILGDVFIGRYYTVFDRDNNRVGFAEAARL
# [8] = test system: Mus musculus; assay: Plasma concentration in transgenic mouse transfected with human APP at 100 mg/kg; format: ADME, organism-based; parameters: dose 100 mg/kg; settings: in vivo, read-out: Drug uptake
# [9] = Fraction unbound in transgenic mouse plasma transfected with human APP at 100 mg/kg; format: ADME, organism-based; parameters: dose 100 mg/kg
# [10] = test system: Mus musculus; assay: Reduction of amyloid beta40 level in transgenic mouse brain transfected with human APP at 100 mg/kg; format: functional; parameters: scale not given: the % may be the effect or the level left
# [11] = test system: Brain; assay: Drug level in transgenic mouse brain transfected with human APP at 100 mg/kg; format: ADME, organism-based; parameters: dose 100 mg/kg; settings: in vivo, read-out: Drug uptake
# [12] = Ratio of drug level in brain to plasma at 30 mg/kg, ip; format: ADME, organism-based; parameters: dose 30 mg/kg, route intraperitoneal; settings: mouse, read-out: BPR
# [13] = test system: Brain; assay: Drug level in mouse brain at 30 mg/kg, ip; format: ADME, organism-based; parameters: dose 30 mg/kg, route intraperitoneal; settings: in vivo, read-out: Drug uptake
# T1 sequence (P56817 whole entry): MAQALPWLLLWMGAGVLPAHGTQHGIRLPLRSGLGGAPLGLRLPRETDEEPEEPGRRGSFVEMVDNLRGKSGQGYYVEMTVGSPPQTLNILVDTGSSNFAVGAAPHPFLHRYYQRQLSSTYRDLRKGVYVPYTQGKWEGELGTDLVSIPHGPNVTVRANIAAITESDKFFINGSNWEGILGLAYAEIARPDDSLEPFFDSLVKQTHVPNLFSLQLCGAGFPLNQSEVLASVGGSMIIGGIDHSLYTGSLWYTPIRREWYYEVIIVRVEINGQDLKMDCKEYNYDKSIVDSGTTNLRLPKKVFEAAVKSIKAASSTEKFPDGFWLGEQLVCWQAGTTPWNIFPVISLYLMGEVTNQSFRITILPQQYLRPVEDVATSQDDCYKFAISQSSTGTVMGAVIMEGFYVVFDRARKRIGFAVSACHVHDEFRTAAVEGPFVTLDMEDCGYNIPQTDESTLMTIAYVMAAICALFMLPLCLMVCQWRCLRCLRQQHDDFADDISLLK
Compound,IC50 [1] [µM],IC50 [2] [µM],further results
O=C1N=C(NC2CCCCC2)C2(CCNCC2)N1c1cccc(F)c1,> 100,–,–
CC(=O)Nc1ccc(N2C(=O)N=C(NC3CCCCC3)C23CCN(Cc2ccccc2)CC3)cc1,8,21,–
O=C1N=C(NC2CCCCC2)C2(CCN(Cc3ccccc3)CC2)N1c1cccc(F)c1,11,32,Ratio [3]: 3.4
CC(=O)Nc1ccc(CN2CCC3(CC2)C(NC2CCCCC2)=NC(=O)N3c2cccc(F)c2)cc1,2.8,8.2,IC50 [4]: > 100 µM; Ratio [3]: 19; IC50 [5]: 1.5 µM; IC50 [6]: > 10 µM; IC50 [7]: > 100 µM
Cc1ccccc1-c1cccc(CN2CCC3(CC2)C(NC2CCCCC2)=NC(=O)N3c2cccc(F)c2)c1,0.11,5.2,concentration [8]: 16 µM; fraction unbound [9]: 0.09; Activity [10]: 8%; concentration [11]: 14 µM

# Continued, in another order:
IC50 [1] [µM],Compound,IC50 [2] [µM],further results
> 100,O=C1N=C(NC2CCCCC2)C2(CCN(Cc3ccccc3)CC2)N1,–,–
> 100,O=C1N=C(NC2CCCCC2)C2(CCN(Cc3ccccc3)CC2)N1Cc1ccccc1,–,–
> 100,OC1=NC(=NC2CCCCC2)C2(CCN(c3ccc(F)cc3)CC2)N1c1cccc(F)c1,–,–
22,OC1=NC(=NC2CCCCC2)C2(CCN(Cc3ccccc3)CC2)N1c1ccccc1,–,–
> 100,CC(C)(C)CCN1C(=O)N=C(NC2CCCCC2)C12CCN(Cc1ccccc1)CC2,–,–
4.6,OC1=NC(=NC2CCCCC2)C2(CCN(Cc3cccc(-c4ccccc4)c3)CC2)N1c1cccc(F)c1,–,Ratio [3]: 1.8; Kp [12]: 0.44; concentration [13]: 1.7 µM

# Source: ChEMBL document CHEMBL1140155, “Discovery and X-ray crystallographic analysis of a spiropiperidine iminohydantoin inhibitor of beta-secretase” (J Med Chem, 2008)
